Legend:
[1] = Case report Example 5: blood pressure in diabetic hypertensive; assay type: in vivo, human; conditions: lisinopril 20 mg twice a day, over 3 days; before 188/92
Experimental: The patient with diabetes requiring insulin therapy also has a long history of elevated blood pressure. The blood pressure was previously controlled using lisinopril 20 mg. daily. […] The dose of lisinopril was lowered to 20 mg once a day.

[2] = intravenous administration; cited from earlier work

NCCCC[C@H](N[C@@H](CCc1ccccc1)C(=O)O)C(=O)N1CCC[C@H]1C(=O)O [lisinopril]
blood pressure [1]: 145/92

N[C@@H](CCC(=O)N[C@@H](CS)C(=O)NCC(=O)O)C(=O)O [reduced glutathione, gamma-glutamyl-cysteinyl-glycine]
blood flow in peripheral vascular disease [2]: benefit in improving blood flow

— patent publication US8679530B2 (Your Energy Systems, LLC, priority 2004, dated 2014)
